Data from publication PMC8871312, “Effects of Microbial Transformation on the Biological Activities of Prenylated Chalcones from Angelica keiskei” (Foods, 2022).

target: T1, Tyrosinase from mushroom; test: dopachrome absorbance at […] nm; type: biochemical; details: 2 mM L-tyrosine, 0.1 M phosphate pH 6.5, 37 °C, 30 min, 150 U/mL enzyme; read-out: IC50 ± SD (μM) / Tyrosinase
T1 construct: gene PPO3

Row | Compound | IC50 [µM]
1 | COC(C)(C)CCc1c(O[C@@H]2O[C@H](CO)[C@@H](O)[C@H](O)[C@H]2O)ccc(C(=O)/C=C/c2ccc(O)cc2)c1O [compound 5, 3′-(3-O-Methyl-3-methylbutyl)-4′-O-β-D-glucopyranosyl-4,2′-dihydroxychalcone] | 28.7 ± 1.24
2 | CC(C)=CCC/C(C)=C/Cc1c(O)ccc(C(=O)/C=C/c2ccc(O)cc2)c1O [compound 3, xanthoangelol] | > 100
3 | CC(C)(O)CCc1c(O[C@@H]2O[C@H](CO)[C@@H](O)[C@H](O)[C@H]2O)ccc(C(=O)/C=C/c2ccc(O)cc2)c1O [compound 4, 3′-(3-Hydroxy-3-methylbutyl)-4′-O-β-D-glucopyranosyl-4,2′-dihydroxychalcone] | 78.5 ± 3.13

Next, values leading:

Row | IC50 [µM] | Compound
4 | > 100 | CC(C)=CCc1c(O)ccc(C(=O)/C=C/c2ccc(O)cc2)c1O [compound 1, isobavachalcone]
5 | 71.7 ± 9.22 | CC(C)=CCC/C(C)=C/Cc1c(O[C@@H]2O[C@H](CO)[C@@H](O)[C@H](O)[C@H]2O)ccc(C(=O)/C=C/c2ccc(O)cc2)c1O [compound 10, 4′-O-β-D-Glucopyranosyl xanthoangelol]
6 | 33.3 ± 1.16 | CCOC(C)(C)CCc1c(O[C@@H]2O[C@H](CO)[C@@H](O)[C@H](O)[C@H]2O)ccc(C(=O)/C=C/c2ccc(O)cc2)c1O [compound 7, 3′-(3-O-Ethyl-3-methylbutyl)-4′-O-β-D-glucopyranosyl-4,2′-dihydroxychalcone]
7 | 43.1 ± 6.74 | CC(C)=CCc1c(O[C@@H]2O[C@H](CO)[C@@H](O)[C@H](O)[C@H]2O)ccc(C(=O)/C=C/c2ccc(O)cc2)c1O [compound 6, 3′-(3-methyl-2-butenyl)-4′-O-β-D-glucopyranosyl-4,2′-dihydroxychalcone]

target: T1, Tyrosinase from mushroom; test: dopachrome absorbance at […] nm; type: biochemical; details: 2 mM L-tyrosine, 0.1 M phosphate pH 6.5, 37 °C, 30 min, 150 U/mL enzyme; read-out: IC50 ± SD (μM) / Tyrosinase; remark: another data set of the same source

Row | IC50 [µM] | Compound
8 | > 100 | COc1ccc(C(=O)/C=C/c2ccc(O)cc2)c(O)c1CC=C(C)C [compound 2, 4-hydroxyderricin]
